Reference: article PMC5129982, “Screen-identified selective inhibitor of lysine demethylase 5A blocks cancer cell growth and drug resistance” (Oncotarget, 2016)

Tests used:
full-length FLAG-KDM5A = molecular target: T1, full-length FLAG-KDM5A (Homo sapiens, UniProt P29375); assay: AlphaScreen KDM5A demethylation assay; type: biochemical; conditions: for inhibition at 2 µM: 2 μM compound
T1 construct: Sf21 insect cells were infected with baculovirus to express full-length FLAG-KDM5A; made in house; host or cells: Sf21 insect cells (baculovirus)
Description: AlphaScreen technology (PerkinElmer) was utilized to perform a screen for small molecule inhibitors of KDM5A. The assay was comprised of two steps, a demethylation reaction followed by detection of the product. A biotinylated H3K4me3 peptide was used as substrate in the demethylation reaction with KDM5A in the presence or absence of small molecule inhibitors. The presence of peptide product (H3K4me1/2) was detected using a product-specific antibody and beads. For this, acceptor beads coated in protein A bound to the antibody, which recognized the peptide product. Donor beads coated in streptavidin bound biotin on the peptide substrate. If the demethylation reaction occurred, the beads were in very close proximity and laser excitation of the donor beads at 680nm caused a transfer of energy in the form of reactive singlet oxygen, resulting in emission by the acceptor beads between 520–620 nm ([30, 31], Figure 1A). The luminescent signal detected was a proxy for the amount of demethylation that occurred.
Reactions were carried out for 1 hour, or were stopped by addition of 30 mM EDTA every 5 minutes for determining enzyme kinetics. Km values were calculated using the Michaelis-Menten non-linear regression analysis on GraphPad Prism 6.0 software. The concentration of DMSO in demethylation reactions was 0.05%. For reactions with catalase, catalase (Sigma C30) or an equal volume of dilution buffer was added to the peptide-containing buffer before addition of the demethylase. The final concentration of catalase in the reactions was 0.01 mg/ml.
(§1) The AlphaScreen general IgG (protein A) detection kit from PerkinElmer Life Sciences was used as described previously. The luminescence emission was recorded at 570 nm using the AlphaScreen optic module on a Pherastar (BMG Labtech) or Envision (PerkinElmer Life Sciences) microplate reader.
IC50 values were calculated by log transformation and non-linear regression log(inhibitor) versus response(three parameters) using Graphpad Prism 6.0 software.

FLAG-KDM5B = molecular target: T2, FLAG-KDM5B (Homo sapiens, UniProt Q9UGL1); assay: AlphaScreen KDM5B demethylation assay; type: biochemical
T2 construct: Full-length FLAG-KDM5B, FLAG-KDM5C, and His-FLAG-KDM6A production was detailed previously; FLAG (N); made in house
Description: (§2) Histone demethylase assays were performed as described previously, with the exception of all enzyme reactions containing 125 μM α-KG. Enzymes were used at the following approximate concentrations in validation experiments, chosen based on their activity in AlphaScreen assays: 19 nM FLAG-KDM5A, 15 nM FLAG-KDM5B, 6 nM FLAG-KDM5C, 29 nM His-FLAG-KDM6A, and 16 nM FLAG-KDM6B. 24 nM FLAG-KDM5A was used for Km determination experiments. Reactions were carried out for 1 hour, or were stopped by addition of 30 mM EDTA every 5 minutes for determining enzyme kinetics. Km values were calculated using the Michaelis-Menten non-linear regression analysis on GraphPad Prism 6.0 software. The concentration of DMSO in demethylation reactions was 0.05%. For reactions with catalase, catalase (Sigma C30) or an equal volume of dilution buffer was added to the peptide-containing buffer before addition of the demethylase. The final concentration of catalase in the reactions was 0.01 mg/ml.
as §1

[1] = molecular target: T3, FLAG-KDM6B (1043-1682) (JMJD3) (Homo sapiens, UniProt O15054); assay: AlphaScreen KDM6B demethylation assay; type: biochemical
T3 construct: FLAG-KDM6B (1043-1682) was purchased from BPS Bioscience (50115); FLAG (N); purchased BPS Bioscience 50115
Description: as §2, §1

[2] = tested on: H3K4 methylation in ZR-75-1 cells; assay: Western blot of global H3K4 methylation, ZR-75-1; type: cell-based, human; conditions: ZR-75-1, 48 hour treatment
Description: Cells were lysed as described previously. Histones were separated by centrifugation, resuspended in Laemmeli buffer, and sonicated. Protein concentration of cell lysates was measured by Bradford assay. Samples in Laemmeli buffer were boiled 10 minutes at 95°C and loaded onto 7% (whole cell lysates) or 18% (histones) SDS-PAGE gels. Membranes were blocked in 4% non-fat milk in Tris-buffered saline with 0.05% Tween (TBS-T) and incubated with primary antibodies in the same buffer or 5% bovine serum albumin in TBS-T overnight at 4°C. Membranes were incubated with secondary anti-rabbit or anti-mouse antibodies for one hour at room temperature. Blots were visualized by Thermo Scientific Pierce ECL Western Blotting Substrate (32106) or EMD Millipore Immobilon Western Chemiluminescent HRP Substrate (WBKLS0100) on film. Signal was quantified using ImageJ software.

HeLa cells = assay: WST-1 proliferation assay, HeLa; type: cell-based, human; conditions: after 3 days
Description: (§3) WST-1 reagent from Roche Applied Sciences (11644807001) was used to measure cell number before drug addition and after 3 or 5 days of growth as described previously. Cells were seeded in 96-well plates at the following number of cells per well: HeLa (2000), MCF7 (2000), ZR-75-1 (1000), MCF10A (1000), MDA-MB-231(5000). DMSO was used at 0.1%. Relative absorbance was calculated by subtracting the average background (media only) signal, dividing by the average signal on day 0, and then dividing by the average day 5/day 0 ratio for the DMSO controls. Significance was calculated by unpaired, two-tailed student's t-test using GraphPad Prism 6.0 software.

MCF7 cells = assay: WST-1 proliferation assay, MCF7; type: cell-based, human; conditions: MCF7, after 3 days
Description: as §3

MDA-MB-231 cells = assay: WST-1 proliferation assay, MDA-MB-231; type: cell-based, human; conditions: MDA-MB-231, 5 days of treatment
Description: as §3

MCF10A cells = assay: WST-1 proliferation assay, MCF10A; type: cell-based, human; conditions: 5 days of treatment
Description: as §3

T1 sequence (P29375 whole entry): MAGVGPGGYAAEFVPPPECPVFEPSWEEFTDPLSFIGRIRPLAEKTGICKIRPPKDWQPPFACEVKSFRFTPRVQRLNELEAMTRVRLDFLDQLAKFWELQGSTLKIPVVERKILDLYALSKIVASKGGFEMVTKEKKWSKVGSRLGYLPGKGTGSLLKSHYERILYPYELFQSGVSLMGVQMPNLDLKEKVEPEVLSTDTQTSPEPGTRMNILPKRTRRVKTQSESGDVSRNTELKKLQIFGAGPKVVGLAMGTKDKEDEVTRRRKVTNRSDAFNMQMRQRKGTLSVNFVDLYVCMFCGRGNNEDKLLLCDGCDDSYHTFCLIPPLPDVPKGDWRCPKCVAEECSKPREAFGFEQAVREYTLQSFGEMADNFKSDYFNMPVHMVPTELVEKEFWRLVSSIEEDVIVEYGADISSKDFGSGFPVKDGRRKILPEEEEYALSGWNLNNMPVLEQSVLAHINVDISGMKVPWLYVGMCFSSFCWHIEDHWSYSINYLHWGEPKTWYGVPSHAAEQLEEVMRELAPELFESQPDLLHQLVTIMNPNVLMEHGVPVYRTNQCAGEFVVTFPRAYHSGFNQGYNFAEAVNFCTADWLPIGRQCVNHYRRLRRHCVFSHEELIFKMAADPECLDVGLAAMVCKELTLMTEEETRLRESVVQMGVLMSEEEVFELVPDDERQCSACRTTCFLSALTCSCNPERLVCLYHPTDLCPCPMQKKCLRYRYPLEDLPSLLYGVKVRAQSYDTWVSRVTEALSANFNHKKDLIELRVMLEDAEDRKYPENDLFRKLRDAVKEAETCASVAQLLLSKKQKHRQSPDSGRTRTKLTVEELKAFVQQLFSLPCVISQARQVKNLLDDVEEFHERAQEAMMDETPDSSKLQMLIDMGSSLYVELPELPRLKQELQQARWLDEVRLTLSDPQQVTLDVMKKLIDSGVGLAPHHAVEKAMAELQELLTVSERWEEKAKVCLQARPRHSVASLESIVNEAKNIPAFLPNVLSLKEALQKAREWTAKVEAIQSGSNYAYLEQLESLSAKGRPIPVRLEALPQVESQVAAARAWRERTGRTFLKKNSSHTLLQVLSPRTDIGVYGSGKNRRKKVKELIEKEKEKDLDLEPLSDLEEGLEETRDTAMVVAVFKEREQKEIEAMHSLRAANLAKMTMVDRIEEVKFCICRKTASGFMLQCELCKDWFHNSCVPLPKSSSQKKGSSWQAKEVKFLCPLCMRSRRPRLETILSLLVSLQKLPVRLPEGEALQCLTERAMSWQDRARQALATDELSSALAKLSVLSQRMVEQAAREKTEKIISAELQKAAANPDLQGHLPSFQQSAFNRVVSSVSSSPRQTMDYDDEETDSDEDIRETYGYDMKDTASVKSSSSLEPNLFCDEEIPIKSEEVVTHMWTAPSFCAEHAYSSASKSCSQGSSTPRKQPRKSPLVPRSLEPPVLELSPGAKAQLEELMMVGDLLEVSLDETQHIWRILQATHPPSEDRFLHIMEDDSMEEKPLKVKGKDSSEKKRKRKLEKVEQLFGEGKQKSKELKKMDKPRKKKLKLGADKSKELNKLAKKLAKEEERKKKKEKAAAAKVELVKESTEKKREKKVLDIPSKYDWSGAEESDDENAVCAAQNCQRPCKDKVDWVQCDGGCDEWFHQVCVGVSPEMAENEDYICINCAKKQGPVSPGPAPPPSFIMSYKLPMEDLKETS
T2 sequence (Q9UGL1 whole entry): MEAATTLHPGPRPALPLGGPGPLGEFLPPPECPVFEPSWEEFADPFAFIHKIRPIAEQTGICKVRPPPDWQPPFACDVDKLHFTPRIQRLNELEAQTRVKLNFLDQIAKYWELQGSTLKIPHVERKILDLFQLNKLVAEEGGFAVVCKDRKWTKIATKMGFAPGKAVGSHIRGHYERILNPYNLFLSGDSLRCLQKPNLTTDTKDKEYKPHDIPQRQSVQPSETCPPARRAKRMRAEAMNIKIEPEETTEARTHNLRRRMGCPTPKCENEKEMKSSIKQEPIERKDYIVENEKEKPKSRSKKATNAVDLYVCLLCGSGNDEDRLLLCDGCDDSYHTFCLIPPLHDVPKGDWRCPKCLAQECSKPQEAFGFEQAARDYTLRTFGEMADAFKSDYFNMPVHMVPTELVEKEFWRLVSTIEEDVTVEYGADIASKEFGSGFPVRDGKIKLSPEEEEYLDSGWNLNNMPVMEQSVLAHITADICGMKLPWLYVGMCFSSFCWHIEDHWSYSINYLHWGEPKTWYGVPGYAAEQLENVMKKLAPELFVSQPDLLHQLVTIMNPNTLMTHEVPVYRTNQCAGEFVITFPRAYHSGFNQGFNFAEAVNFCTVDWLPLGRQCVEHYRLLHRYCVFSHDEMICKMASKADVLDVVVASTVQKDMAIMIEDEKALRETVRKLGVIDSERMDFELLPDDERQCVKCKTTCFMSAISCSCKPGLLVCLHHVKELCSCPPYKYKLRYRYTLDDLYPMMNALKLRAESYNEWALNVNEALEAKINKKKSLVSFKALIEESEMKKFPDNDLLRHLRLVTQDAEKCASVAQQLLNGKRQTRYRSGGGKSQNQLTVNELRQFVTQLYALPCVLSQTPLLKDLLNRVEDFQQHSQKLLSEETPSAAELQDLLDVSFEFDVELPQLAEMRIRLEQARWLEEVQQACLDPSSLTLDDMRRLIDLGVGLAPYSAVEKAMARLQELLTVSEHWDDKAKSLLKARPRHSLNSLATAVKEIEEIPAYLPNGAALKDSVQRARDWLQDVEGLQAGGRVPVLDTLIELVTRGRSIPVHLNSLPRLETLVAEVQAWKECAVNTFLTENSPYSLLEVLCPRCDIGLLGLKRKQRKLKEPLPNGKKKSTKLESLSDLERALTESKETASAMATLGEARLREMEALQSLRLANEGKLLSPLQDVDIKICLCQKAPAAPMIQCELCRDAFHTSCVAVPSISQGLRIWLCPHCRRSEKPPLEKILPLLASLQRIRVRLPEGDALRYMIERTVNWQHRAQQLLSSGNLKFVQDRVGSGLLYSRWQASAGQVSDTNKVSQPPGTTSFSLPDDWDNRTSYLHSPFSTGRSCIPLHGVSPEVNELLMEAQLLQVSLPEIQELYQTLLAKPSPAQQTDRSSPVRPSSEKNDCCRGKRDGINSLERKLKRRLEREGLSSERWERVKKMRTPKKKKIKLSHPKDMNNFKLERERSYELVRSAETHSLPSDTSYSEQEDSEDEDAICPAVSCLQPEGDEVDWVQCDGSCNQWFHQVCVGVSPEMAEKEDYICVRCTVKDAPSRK
T3 sequence (O15054 1043-1682 isoform O15054-1): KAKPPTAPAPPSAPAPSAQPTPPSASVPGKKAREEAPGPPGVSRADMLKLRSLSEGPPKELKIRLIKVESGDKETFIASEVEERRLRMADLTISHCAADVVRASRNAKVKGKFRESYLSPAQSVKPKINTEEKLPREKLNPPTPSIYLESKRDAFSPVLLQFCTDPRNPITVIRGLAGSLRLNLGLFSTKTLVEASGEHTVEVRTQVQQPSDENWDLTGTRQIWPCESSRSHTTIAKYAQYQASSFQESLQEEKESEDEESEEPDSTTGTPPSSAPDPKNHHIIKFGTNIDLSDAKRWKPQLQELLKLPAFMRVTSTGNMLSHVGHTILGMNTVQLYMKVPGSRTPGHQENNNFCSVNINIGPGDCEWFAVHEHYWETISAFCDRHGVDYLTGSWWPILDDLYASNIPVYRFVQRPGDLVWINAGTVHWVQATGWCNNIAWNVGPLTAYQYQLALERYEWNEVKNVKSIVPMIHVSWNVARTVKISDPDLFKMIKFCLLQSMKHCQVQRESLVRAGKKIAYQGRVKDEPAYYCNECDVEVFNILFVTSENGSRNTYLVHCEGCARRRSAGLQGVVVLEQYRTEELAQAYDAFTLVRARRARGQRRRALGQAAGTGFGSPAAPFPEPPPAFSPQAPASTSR

mode of inhibition with respect to Fe(II) (full-length FLAG-KDM5A): uncompetitive with respect to Fe(II)
change of IC50 over a 16-fold range of α-KG concentrations (full-length FLAG-KDM5A; 150 nM H3K4me3 peptide, 50 μM Fe(II)): did not change significantly
inhibition at 2 µM (full-length FLAG-KDM5A; 50 μM Fe(II)): ~70%
inhibition at 2 µM (full-length FLAG-KDM5A; low Fe(II)): ~25%
enzyme inhibition at low Fe(II) (full-length FLAG-KDM5A; 5 μM Fe(II)): too weak to generate robust IC50 curves
effect of catalase on inhibitory potency against KDM5A (full-length FLAG-KDM5A; 0.01 mg/ml catalase): did not affect
IC50 (full-length FLAG-KDM5A; AlphaScreen, 1 hour reaction, 0.05–50 μM compound): 2.66 µM
IC50 (FLAG-KDM5B; AlphaScreen): > 50 µM
activity against KDM5B (FLAG-KDM5B; at 50 μM): no activity
IC50 [1]: > 50 µM
Compound: C=CCOc1c(CNn2cnnc2S)cccc1OC [YUKA1, 4-([2-(allyloxy)-3-methoxybenzyl]amino)-4H-1,2,4-triazole-3-thiol]
global H3K4me3 levels [2]: increased global H3K4me3 levels
proliferation relative to DMSO-treated cells (HeLa cells): less than half of DMSO-treated cells
proliferation (MCF7 cells): not affected
decrease in cell proliferation (MDA-MB-231 cells): 10–15%
cell proliferation (MCF10A cells): did not hinder cell proliferation
